Laboratory results as given in patent publication US20120245029A1, “NOVEL PHOSPH(ON)ATE- AND SULF(ON)ATE-BASED PHOSPHATE MODIFIED NUCLEOSIDES USEFUL AS SUBSTRATES FOR POLYMERASES AND AS ANTIVIRAL AGENTS” (priority 2009, published 2012).

Key:
HIV-1 RT [1] = biological target: T1, HIV-1 RT (Human immunodeficiency virus type 1 group M subtype B, UniProt P04585); experiment: Gel-based single nucleotide incorporation assay by HIV-1 RT (primer-template P1T1); format: biochemical; details: for % of P + 1: P1T1 125 nM; for conversion within 60 minutes: P1T1
T1 construct: HIV-1 Reverse Transcriptase serves, in the HIV-1 viral replication process, as catalyst; purchased Ambion
Procedure: (§1) DNA polymerase reactions: end-labeled primer was annealed to its template by combining primer and template in a molar ratio of 1:2 and heating the mixture to 70° C. for 10 minutes followed by slow cooling to room temperature over a period of 1.5 hour. For the incorporation of a modified nucleoside, a series of 20 μL-batch reactions was performed with the enzyme HIV-1 RT (Ambion, 10 U/μL stock soln, specific activity 8.095 Wring, concentration 1.2 mg/mL). The final mixture contained 125 nM primer template complex, RT buffer (250 mM Tris.HCl, 250 mM KCl, 50 mM MgCl2, 2.5 mM spermidine, 50 mM dithiothreitol (DTT); pH 8.3), 0.025 U/μL HIV-1 RT, and different concentrations of the phosphoramidate to be tested (1 mM, 500 μM, 200 μM and 100 μM).
(§2) Electrophoresis: all polymerase reaction aliquots (2.5 μL) were quenched by the addition of 10 μL of loading buffer (90% formamide, 0.05% bromophenol blue, 0.05% xylene cyanol and 50 mM ethylenediaminetetraacetic acid (EDTA)). Samples were heated at 85° C. for 5 minutes prior to analysis by electrophoresis for 2.5 hours at 2000 V on a 30 cm×40 cm×0.4 mm 20% (19:1 mono:bis) denaturing gel in the presence of a 100 mM Tris-borate, 2.5 mM EDTA buffer; pH 8.3. Products were visualized by phosphorimaging. The amount of radioactivity in the bands corresponding to the products of enzymatic reactions was determined by using the imaging device Cyclone@ and the Optiquant image analysis software (Perkin Elmer).
Here, the ability of phosphoramidate analogues as substrate for HIV-1 RT was investigated by the gel-based single nucleotide incorporation assay. The natural nucleoside triphosphate (dATP) was used as reference.
The ability of HIV-1 reverse transcriptase to incorporate phosphoramidate analogues 2-6 was analysed by gel-based single-nucleotide-incorporation assays using the primer-template complex P1T1.

HIV-1 RT [2] = biological target: T1, HIV-1 RT; experiment: Elongation of primer P1 directed by template T2 by HIV-1 RT; format: biochemical; details: for % product P + 1 / % product P + 2 / % product P + 3 / % product P + 4 / % product P + 5 / % product P + 6 / % product P + 7: 120 minutes reaction, P1T2, percentage of the total amount of radio-nucleotides
Procedure: as §1, §2
In order to further investigate the potentiality of the leaving groups of this invention, L-Cys-dAMP (2) and 3-phosphono-L-Ala-dAMP (3) were tested in the template dependent incorporation of more than one phosphoramidate nucleotides by HIV-1 RT (FIG. 4). For this purpose, Primer P1 and template T2 containing an overhang of seven thymidine residues and four nucleobases (GGAC) at the 3′-end were used.
In order to investigate the strand elongation capacity of compound 2, a template dependent incorporation of more than one nucleotide experiment was carried out. In this experiment HIV-1 RT and P1T2 duplex, where seven thymidine bases overhang of the template is flanked by four non-thymidine units at the 3′-end were used. A range of concentration of the building block was incubated with the primer-template complex and 0.025 U/μL of enzyme at the appropriate temperature, samples were quenched after 15, 30, 60, 90 and 120 minutes respectively and analyzed by 20% polyacrylamide gel electrophoresis.

Compound | % of P + 1 (HIV-1 RT [1]; 100 μM substrate, 10 min) | % of P + 1 (HIV-1 RT [1]; 100 μM substrate, 20 min) | % of P + 1 (HIV-1 RT [1]; 100 μM substrate, 30 min) | % of P + 1 (HIV-1 RT [1]; 100 μM substrate, 60 min) | % of P + 1 (HIV-1 RT [1]; 100 μM substrate, 120 min) | % of P + 1 (HIV-1 RT [1]; 200 μM substrate, 10 min) | % of P + 1 (HIV-1 RT [1]; 200 μM substrate, 20 min) | % of P + 1 (HIV-1 RT [1]; 200 μM substrate, 30 min) | % of P + 1 (HIV-1 RT [1]; 200 μM substrate, 60 min) | % of P + 1 (HIV-1 RT [1]; 200 μM substrate, 120 min) | % of P + 1 (HIV-1 RT [1]; 500 μM substrate, 10 min) | % of P + 1 (HIV-1 RT [1]; 500 μM substrate, 20 min) | conversion within 60 minutes (HIV-1 RT [1]; 500 μM substrate, 60 min) | % product P + 1 (HIV-1 RT [2]) | % product P + 2 (HIV-1 RT [2]) | % product P + 3 (HIV-1 RT [2]) | % product P + 4 (HIV-1 RT [2]) | % product P + 5 (HIV-1 RT [2]) | % product P + 6 (HIV-1 RT [2]) | % product P + 7 (HIV-1 RT [2]) | further results
Nc1ncnc2c1ncn2[C@H]1C[C@H](O)[C@@H](COP(=O)(O)NCCS(=O)(=O)O)O1 [Compound 1, 2′-deoxyadenosine-5′-taurine phosphoramidate] | 3.5% | 4.0% | 4.8% | 6.3% | 7.2% | 3.1% | 5.7% | 4.6% | 5.1% | 4.3% | 12.8% | 16.6% |  |  |  |  |  |  |  |  | % of P + 1 (HIV-1 RT [1]; 500 μM substrate, 30 min): 19.8%; % of P + 1 (HIV-1 RT [1]; 500 μM substrate, 60 min): 20.1%; % of P + 1 (HIV-1 RT [1]; 500 μM substrate, 120 min): 20.2%; % of P + 1 (HIV-1 RT [1]; 1 mM substrate, 10 min): 26.6%; % of P + 1 (HIV-1 RT [1]; 1 mM substrate, 20 min): 41.0%; % of P + 1 (HIV-1 RT [1]; 1 mM substrate, 30 min): 55.1%; % of P + 1 (HIV-1 RT [1]; 1 mM substrate, 60 min): 54.7%; % of P + 1 (HIV-1 RT [1]; 1 mM substrate, 120 min): 55.7%
Nc1ncnc2c1ncn2[C@H]1C[C@H](O)[C@@H](COP(=O)(O)N[C@@H](CS(=O)(=O)O)C(=O)O)O1 [Compound 2, 2′-Deoxyadenosine-5′-(L-cysteic acid) phosphoramidate] | 7.7% | 7.9% | 8.5% | 9.3% | 9.1% | 13.7% | 15.6% | 16.0% | 15.8% | 18.1% | 27.7% | 29.6% |  |  |  |  |  |  |  |  | % of P + 1 (HIV-1 RT [1]; 500 μM substrate, 30 min): 38.3%; % of P + 1 (HIV-1 RT [1]; 500 μM substrate, 60 min): 38.4%; % of P + 1 (HIV-1 RT [1]; 500 μM substrate, 120 min): 41.5%; % of P + 1 (HIV-1 RT [1]; 1 mM substrate, 60 min): 63.1%; primer extension products (in words) (HIV-1 RT [2]; P1T2, gel electrophoresis): only extended a primer with one and two adenine nucleobases
Nc1ncnc2c1ncn2[C@H]1C[C@H](O)[C@@H](COP(=O)(O)N(CP(=O)(O)O)CP(=O)(O)O)O1 [Compound 6, 2′-deoxyadenosine-5′-[iminobis(methanephosphonate)] phosphoramidate] |  |  |  |  |  |  |  |  |  |  |  |  | 90% | 8.6% | 53.1% | 10.8% | traces | 0% | 0% | 0% | 
Nc1ncnc2c1ncn2[C@H]1C[C@H](O)[C@@H](COP(=O)(O)N(CCP(=O)(O)O)CCP(=O)(O)O)O1 [Compound 7, 2′-deoxyadenosine-5′-[iminobis(ethyl phosphonate)] phosphoramidate] |  |  |  |  |  |  |  |  |  |  |  |  | 83.2% | 15.2% | 35.4% | 4.9% | traces | 0% | 0% | 0% | 
Nc1ncnc2c1ncn2[C@H]1CC(O)[C@@H](COP(=O)(O)N(CC(=O)O)CP(=O)(O)O)O1 (stereo partly shown) [Compound 8] |  |  |  |  |  |  |  |  |  |  |  |  | 70.8% | 11.8% | 37.7% | 7.9% | traces | 1.2% | 0.6% | 1.2% | 
